Source: US11208421B2, “2-carboxypenam compound or salt thereof, pharmaceutical composition containing novel 2-carboxypenam compound or salt thereof, and applications thereof” (priority 2017, dated 2021)
Values after ≈ are worked out from the molar mass of the structure shown.

What was measured:
Assay type in all cases: cell-based
[1] = tested on: Pseudomonas aeruginosa AmpC derepression mutant strain S-3028; assay: Antibacterial activity evaluation test (MIC), broth microdilution, AmpC derepression mutant strain S-3028; conditions: for MIC Pseudomonas aeruginosa strain S-3028: AmpC derepression mutant, cation-adjusted Mueller Hinton medium, 35° C., 16 to 20 hours; for MIC: Pseudomonas aeruginosa, read-out: MIC Pseudomonas aeruginosa strain S-3028
Experimental: (§1) The minimum inhibitory concentration (MIC) was measured according to the Clinical and Laboratory Standards Institute (CLSI) standard method by using the following broth microdilution method.
(§2) As bacteria, a Pseudomonas aeruginosa strain ATCC 27853, a Pseudomonas aeruginosa AmpC derepression mutant strain S-3028, and a Pseudomonas aeruginosa IMP-1-producing strain S-2838 were used.
(§3) The Pseudomonas aeruginosa AmpC-derepression mutant strain S-3028 or the Pseudomonas aeruginosa IMP-1-producing strain S-2838 was cultured on a Mueller Hinton agar medium overnight, thereby preparing test bacterial cells. The obtained test bacterial cells were scraped off, suspended to yield 0.5 McFarland equivalence, and diluted 10-fold to obtain an inoculum. A cation-adjusted Mueller Hinton medium containing a test compound was inoculated with 0.0005 mL of the inoculum, and the cells were cultured at 35° C. for 16 to 20 hours. The minimum drug concentration at which the growth of bacteria was not visually observed was defined as MIC.

[2] = tested on: Pseudomonas aeruginosa strain ATCC 27853; assay: Antibacterial activity evaluation test (MIC), broth microdilution, strain ATCC 27853; conditions: for MIC Pseudomonas aeruginosa strain ATCC 27853: cation-adjusted Mueller-Hinton medium supplemented with 20 M of apotransferrin, 35° C., 16 to 20 hours; for MIC: Pseudomonas aeruginosa, ATCC27853, read-out: MIC Pseudomonas aeruginosa strain ATCC 27853
Experimental: as §1, §2, §3
The MIC of the Pseudomonas aeruginosa ATCC strain 27853 was measured in the same manner as described above by using a cation-adjusted Mueller-Hinton medium supplemented with […] of apotransferrin as a final concentration.

[3] = tested on: Pseudomonas aeruginosa IMP-1-producing strain S-2838; assay: Antibacterial activity evaluation test (MIC), broth microdilution, IMP-1-producing strain S-2838; conditions: for MIC Pseudomonas aeruginosa strain S-2838: IMP-1-producing strain, cation-adjusted Mueller Hinton medium, 35° C., 16 to 20 hours; for MIC: Pseudomonas aeruginosa, read-out: MIC Pseudomonas aeruginosa strain S-2838
Experimental: as §1, §2, §3

SMILES	MIC Pseudomonas aeruginosa strain S-3028 [1]	MIC Pseudomonas aeruginosa strain ATCC 27853 [2]	MIC Pseudomonas aeruginosa strain S-2838 [3]	MIC [1]	MIC [2]	MIC [3]
CN(CCS[C@]1(C(=O)O)CN2C(=O)[C@@H](NC(=O)/C(=N\OC(C)(C)C(=O)O)c3csc(N)n3)[C@H]2S1)NC(=O)c1ccc(O)c(O)c1Cl [Example 22, (3R,5R,6R)-6-((Z)-2-(2-aminothiazol-4-yl)-2-(((2-carboxypropan-2-yl)oxy)imino)acetamide)-3-((2-(2-(2-chloro-3,4-dihydroxybenzoyl)-1-methylhydrazinyl)ethyl)thio)-7-oxo-4-thia-1-azabicyclo[3.2.0]heptane-3-carboxylic acid]	8 µg/mL (≈ 11.1 µM)	0.125 µg/mL (≈ 0.174 µM)	2 µg/mL (≈ 2.78 µM)	–	–	–
CC(C)(O/N=C(\C(=O)N[C@@H]1C(=O)N2C[C@](SCCNC(=O)C(=O)c3cc(O)c(O)cc3Cl)(C(=O)O)S[C@H]12)c1csc(N)n1)C(=O)O [Example 23, (3R,5R,6R)-6-((Z)-2-(2-aminothiazol-4-yl)-2-(((2-carboxypropan-2-yl)oxy)imino)acetamide)-3-((2-(2-(2-chloro-4,5-dihydroxyphenyl)-2-oxoacetamide)ethyl)thio)-7-oxo-4-thia-1-azabicyclo[3.2.0]heptane-3-carboxylic acid]	2 µg/mL (≈ 2.79 µM)	1 µg/mL (≈ 1.39 µM)	4 µg/mL (≈ 5.58 µM)	–	–	–
CC(C)(O/N=C(\C(=O)N[C@@H]1C(=O)N2C[C@](SCCNC(=O)/C(=N\NC(N)=O)c3cc(O)c(O)cc3Cl)(C(=O)O)S[C@H]12)c1csc(N)n1)C(=O)O [Example 24, (3R,5R,6R)-6-((Z)-2-(2-aminothiazol-4-yl)-2-(((2-carboxypropan-2-yl)oxy)imino)acetamide)-3-((2-((Z)-2-(2-carbamoylhydrazinylidene)-2-(2-chloro-4,5-dihydroxyphenyl)acetamide)ethyl)thio)-7-oxo-4-thia-1-azabicyclo[3.2.0]heptane-3-carboxylic acid]	–	–	–	8 µg/mL (≈ 10.3 µM)	0.5 µg/mL (≈ 0.646 µM)	4 µg/mL (≈ 5.17 µM)
CN(CCS[C@]1(C(=O)O)CN2C(=O)[C@@H](NC(=O)/C(=N\OC(C)(C)C(=O)O)c3csc(N)n3)[C@H]2S1)C(=O)c1ccc(O)c(O)c1Cl [Example 25, (3R,5R,6R)-6-((Z)-2-(2-aminothiazol-4-yl)-2-(((2-carboxypropan-2-yl)oxy)imino)acetamide)-3-((2-(2-chloro-3,4-dihydroxy-N-methylbenzamide)ethyl)thio)-7-oxo-4-thia-1-azabicyclo[3.2.0]heptane-3-carboxylic acid]	–	–	–	2 µg/mL (≈ 2.84 µM)	1 µg/mL (≈ 1.42 µM)	1 µg/mL (≈ 1.42 µM)
CC(C)(O/N=C(\C(=O)N[C@@H]1C(=O)N2C[C@](SCCNC(=O)/C(=N\N)c3ccc(O)c(O)c3Cl)(C(=O)O)S[C@H]12)c1csc(N)n1)C(=O)O [Example 26, (3R,5R,6R)-6-((Z)-2-(2-aminothiazol-4-yl)-2-(((2-carboxypropan-2-yl)oxy)imino)acetamide)-3-((2-((Z)-2-(2-chloro-3,4-dihydroxyphenyl)-2-hydrazinylideneacetamide)ethyl)thio)-7-oxo-4-thia-1-azabicyclo[3.2.0]heptane-3-carboxylic acid]	8 µg/mL (≈ 10.9 µM)	0.5 µg/mL (≈ 0.684 µM)	1 µg/mL (≈ 1.37 µM)	–	–	–
CC(C)(O/N=C(\C(=O)N[C@@H]1C(=O)N2C[C@](SC[C@@H]3COCCN3C(=O)c3ccc(O)c(O)c3Cl)(C(=O)O)S[C@H]12)c1csc(N)n1)C(=O)O [Example 27, (3R,5R,6R)-6-((Z)-2-(2-aminothiazol-4-yl)-2-(((2-carboxypropan-2-yl)oxy)imino)acetamide)-3-((((S)-4-(2-chloro-3,4-dihydroxybenzoyl)morpholin-3-yl)methyl)thio)-7-oxo-4-thia-1-azabicyclo[3.2.0]heptane-3-carboxylic acid]	0.5 µg/mL (≈ 0.671 µM)	1 µg/mL (≈ 1.34 µM)	0.5 µg/mL (≈ 0.671 µM)	–	–	–
CC(C)(O/N=C(\C(=O)N[C@@H]1C(=O)N2C[C@](SCCNNC(=O)c3ccc(O)c(O)c3Cl)(C(=O)O)S[C@H]12)c1csc(N)n1)C(=O)O [Example 28, (3R,5R,6R)-6-((Z)-2-(2-aminothiazol-4-yl)-2-(((2-carboxypropan-2-yl)oxy)imino)acetamide)-3-((2-(2-(2-chloro-3,4-dihydroxybenzoyl)hydradienyl)ethyl)thio)-7-oxo-4-thia-1-azabicyclo[3.2.0]heptane-3-carboxylic acid]	1 µg/mL (≈ 1.42 µM)	1 µg/mL (≈ 1.42 µM)	1 µg/mL (≈ 1.42 µM)	–	–	–
